{
  "source": "patent US20140005269A1",
  "about": "“POLYMERIC MATRIX OF POLYMER-LIPID NANOPARTICLES AS A PHARMACEUTICAL DOSAGE FORM” (priority 2010, published 2014)",
  "experiment": "In vitro drug release, USP 32 apparatus II dissolution",
  "type": "physicochemical",
  "settings": "pH 6.8 (standard buffer KH2PO4/NaOH)",
  "description": "Drug release was assessed using a USP 32 apparatus II dissolution system (Erweka DT 700, Erweka GmbH, Heusenstamm, Germany). Temperature and stirring rate was at 37±0.5° C. and 50 rpm respectively while the dissolution media was 0.1N HCl, buffers pH 1.5 and 4.5. Samples were withdrawn at predetermined intervals and replaced with the same volume of fresh medium, and the quantity of L-dopa released was quantified using UV spectroscopy. In vitro drug release studies were also undertaken for E3 matrices formulated from IPBs in varying normalities of acetic acid in buffer pH 1.5 (standard buffer KCl/HCl), pH 4.5 (0.025M KH2PO4/H2PO4) and pH 6.8 (standard buffer KH2PO4/NaOH) was employed to observe the behavior of the matrices and not for drug release as the model drug L-dopa was unstable at such pH values.\nThe incorporation of polymer-lipid nanoparticles into the IPB was undertaken as described earlier via direct compression. However, the L-dopa-loaded polymer-lipid nanoparticles was incorporated instead of L-dopa alone while the in vitro drug release was assessed as described earlier.",
  "data": [
    {"compound": "N[C@@H](Cc1ccc(O)c(O)c1)C(=O)O", "note": "[L-dopa, 3-(3,4-dihydroxyphenyl)-L-alanine]", "values": [
      {"measurement": "stability of the model drug in dissolution medium", "value": "unstable"}
    ]}
  ]
}
